Experimental data reported in patent publication US7378402B2, “Anti-viral nucleosides” (Roche Palo Alto LLC, priority 2004, dated 2008).

Columns and labels:
HIV = details: cited from earlier work
[1] = monotherapy; cited from earlier work
[2] = tested on: HCV replicon RNA (Renilla luciferase HCV replicon cells 2209-23, human hepatoma Huh7); assay: Renilla luciferase HCV replicon assay; format: cell-based, hepatitis C virus (HCV); details: Huh-7, 72 h; replicon cells 2209-23, incubated three days at 37° C.; concentration reducing replicon level by 50%

C#CC1(CO)OC(n2ccc(N)nc2=O)C(O)C1O (stereo not shown) [Compound 12a, 4-Ethynyl-cytarabine]
anti-HIV activity (HIV): good anti-HIV activity

NC(=O)c1ncn([C@@H]2O[C@H](CO)[C@@H](O)[C@H]2O)n1 [ribavirin, 1-((2R,3R,4S,5R)-3,4-Dihydroxy-5-hydroxymethyl-tetrahydro-furan-2-yl)-1H-[1,2,4]triazole-3-carboxylic acid amide]
effect on serum levels of HCV-RNA [1]: does not lower | patients in whom serum amino transferase levels are reduced to normal [1]: 40%

CCCCC(=O)O[C@@H]1[C@H](n2ccc(N)nc2=O)O[C@@](CO)(N=[N+]=[N-])[C@H]1OC(=O)CCCC
melting point: 160.4 to 162.2 °C

CC(C)C(NC(=O)OC(C)(C)C)C(=O)OC[C@@]1(N=[N+]=[N-])O[C@@H](n2ccc(N)nc2=O)[C@@H](O)[C@@H]1O (stereo partly shown)
melting point: 106.9 to 107.3 °C

CCCCCCCCCCCCCC(=O)OC[C@@]1(N=[N+]=[N-])O[C@@H](n2ccc(N)nc2=O)[C@@H](O)[C@@H]1O
melting point: 110.3 to 119.3 °C

[N-]=[N+]=N[C@]1(CO)O[C@@H](n2ccc(N)nc2=O)[C@@H](O)[C@@H]1O [Compound I-1, 4-Amino-1-((2R,3S,4S,5R)-5-azido-3,4-dihydroxy-5-hydroxymethyl-tetrahydro-furan-2yl)-1H-pyrimidin-2-one]
IC50 [2]: 0.22 µM
